According to ChEMBL document CHEMBL4411258, “Novel natural compounds from endophytic fungi with anticancer activity” (Eur J Med Chem, 2018):
Values after ≈ are worked out from the molar mass of the structure shown.

Key:
[1] = test system: HepG2; experiment: Cytotoxicity against human HepG2 cells after 24 hrs by MTT assay; assay type: functional, cell-based; settings: HepG2, 24 h
[2] = test system: MDA-MB-435; experiment: Cytotoxicity against human MDA-MB-435 cells by MTT assay; assay type: functional, cell-based
[3] = test system: A549; experiment: Cytotoxicity against human A549 cells by MTT assay; assay type: functional, cell-based
[4] = test system: SGC-7901; experiment: Cytotoxicity against human SGC7901 cells by MTT assay; assay type: functional, cell-based
[5] = test system: HL-60; experiment: Cytotoxicity against human HL60 cells by MTT assay; assay type: functional, cell-based
[6] = test system: HepG2; experiment: Cytotoxicity against human HepG2 cells after 72 hrs by MTT assay; assay type: functional, cell-based; settings: HepG2, 72 h
[7] = test system: A549; experiment: Cytotoxicity against human A549 cells after 72 hrs by MTT assay; assay type: functional, cell-based; settings: A549, 72 h
[8] = test system: Raji; experiment: Cytotoxicity against human Raji cells after 72 hrs by MTT assay; assay type: functional, cell-based
[9] = test system: HL-60; experiment: Cytotoxicity against human HL60 cells after 72 hrs by MTT assay; assay type: functional, cell-based; settings: HL-60, 72 h
[10] = test system: MCF7; experiment: Cytotoxicity against human MCF7 cells after 72 hrs by MTT assay; assay type: functional, cell-based; settings: MCF7, 72 h
[11] = test system: NCI-H446; experiment: Cytotoxicity against human NCI-H446 cells by MTS assay; assay type: functional, cell-based
[12] = test system: SH-SY5Y; experiment: Cytotoxicity against human SH-SY5Y cells by MTT assay; assay type: functional, cell-based
[13] = test system: PC-3; experiment: Cytotoxicity against human PC3 cells by MTT assay; assay type: functional, cell-based
[14] = test system: MCF7; experiment: Cytotoxicity against human MCF7 cells by MTT assay; assay type: functional, cell-based
[15] = test system: MDA-MB-435; experiment: Cytotoxicity against human MDA-MB-435 cells after 72 hrs by MTT assay; assay type: functional, cell-based; settings: MDA-MB-435, 72 h
[16] = test system: HCT-116; experiment: Cytotoxicity against human HCT116 cells after 72 hrs by MTT assay; assay type: functional, cell-based; settings: HCT-116, 72 h
[17] = test system: NCI-H187; experiment: Cytotoxicity against human NCI-H187 cells by resazurin microplate assay; assay type: functional, cell-based
[18] = test system: Vero; experiment: Cytotoxicity against African green monkey Vero cells by resazurin microplate assay; assay type: cell-based; settings: Chlorocebus sabaeus
[19] = test system: BT-549; experiment: Cytotoxicity against human BT549 cells after 48 hrs by neutral red dye based assay; assay type: functional, cell-based; settings: BT-549, 48 h
[20] = test system: SK-OV-3; experiment: Cytotoxicity against human SKOV3 cells after 48 hrs by neutral red dye based assay; assay type: functional, cell-based; settings: SK-OV-3, 48 h
[21] = Inhibition of RANKL-induced NFkappaB (unknown origin) activation expressed in mouse RAW264.7 cells preincubated for 1 hr followed by RANKL stimulation and measured after 6 hrs by luciferase reporter gene based assay; assay type: cell-based
[22] = test system: L02; experiment: Cytotoxicity against human L02 cells by MTS assay; assay type: cell-based
[23] = test system: MCF7; experiment: Cytotoxicity against human MCF7 cells by MTS assay; assay type: functional, cell-based
[24] = test system: HeLa; experiment: Cytotoxicity against human HeLa cells by MTS assay; assay type: functional, cell-based
[25] = test system: Huh-7; experiment: Cytotoxicity against human HuH7 cells by MTS assay; assay type: functional, cell-based
[26] = test system: A549; experiment: Cytotoxicity against human A549 cells by MTS assay; assay type: functional, cell-based
[27] = Cytotoxicity against mouse LM3 cells by MTS assay; assay type: functional, cell-based
[28] = test system: SW1990; experiment: Cytotoxicity against human SW1990 cells by MTS assay; assay type: functional, cell-based
[29] = test system: RPMI-8226; experiment: Cytotoxicity against human RPMI8226 cells after 48 hrs by MTT assay; assay type: functional, cell-based; settings: RPMI-8226, 48 h
[30] = test system: NB-4; experiment: Cytotoxicity against human NB4 cells by MTT assay; assay type: functional, cell-based

COc1ccc2c3c([nH]c2c1)C(C=C(C)C)N1C(=O)C2CCCN2C(=O)C1(OC)C3OC(=O)c1cc(O)cc(OC)c1C(=O)c1c(O)cc(C)cc1OC (centres undefined)
IC50 [1]: 47.5 µM

CC1=C[C@@H]2/C=C/C[C@H](C)/C=C(\C)CC(=O)/C=C/C(=O)[C@]23C(=O)N[C@@H](Cc2c[nH]c4ccccc24)[C@@H]3[C@@H]1C [PROCHEATOGLOBOSIN II]
IC50 [2]: 36.9 µM | IC50 [3]: 35.9 µM | IC50 [4]: 37.7 µM

COC1=C2c3cc(OC)cc(O)c3C(=O)O[C@@]2(C)CC1=O
IC50 [5]: > 200 µM

CCC(=O)Cc1c(OC)cc(=O)oc1C
IC50 [6]: 1 to 26.8 µg/mL | IC50 [7]: 1 to 26.8 µg/mL (≈ 4.76 to 127 µM) | IC50 [8]: 1 to 26.8 µg/mL (≈ 4.76 to 127 µM) | IC50 [9]: 1 to 26.8 µg/mL (≈ 4.76 to 127 µM) | IC50 [10]: 1 to 26.8 µg/mL (≈ 4.76 to 127 µM)

Cc1cc2c(c3c1C(=O)Oc1c(C)c4c(c(O)c1O3)C(=O)OC4)CO2
IC50 [11]: 63 µM

COC1=CC(=O)OC2C1[C@H](O)CO[C@H]2O (some centres undefined)
IC50 [6]: 1 to 26.8 µg/mL | IC50 [7]: 1 to 26.8 µg/mL (≈ 4.63 to 124 µM) | IC50 [8]: 1 to 26.8 µg/mL (≈ 4.63 to 124 µM) | IC50 [9]: 1 to 26.8 µg/mL (≈ 4.63 to 124 µM) | IC50 [10]: 1 to 26.8 µg/mL (≈ 4.63 to 124 µM)

COC(=O)[C@@H]1c2c(oc3cc(C)cc(OC)c3c2=O)C=C[C@H]1O
IC50 [12]: 7.8 µM | IC50 [3]: 8.2 µM | IC50 [13]: 6.9 µM | IC50 [14]: 8.4 µM

O=Cc1cc(/C=C/c2cc(O)cc(O)c2C=O)ccc1O
IC50 [15]: < 50 µM | IC50 [6]: < 50 µM | IC50 [16]: < 50 µM

O=Cc1cc(/C=C/c2cc(O)cc(O)c2)ccc1O
IC50 [15]: < 50 µM | IC50 [6]: < 50 µM | IC50 [16]: < 50 µM

C[C@@H]1CC[C@@H]2[C@H](C=C[C@H]3[C@H](/C=C/[C@H](C)O)OC(=O)[C@@]23C)C1
IC50 [17]: 17.8 µg/mL (≈ 61.2 µM) | IC50 [18]: 31.5 µg/mL (≈ 108 µM)

COc1cc(=O)oc(CO)c1[C@H](C)O
IC50 [6]: 1 to 26.8 µg/mL | IC50 [7]: 1 to 26.8 µg/mL (≈ 5 to 134 µM) | IC50 [8]: 1 to 26.8 µg/mL (≈ 5 to 134 µM) | IC50 [9]: 1 to 26.8 µg/mL (≈ 5 to 134 µM) | IC50 [10]: 1 to 26.8 µg/mL (≈ 5 to 134 µM)

C[C@@H](N)C(=O)Nc1ccccc1C(=O)N[C@@H](O)CCS
IC50 [19]: 0.4 µM | IC50 [20]: 0.8 µM

COC(=O)c1cc(OC)c(O)c2oc3c(c(=O)c12)[C@H](OC)O[C@@H](C)C3
IC50 [21]: 30 to 46 µM

C=C(CC[C@@H](C)[C@H]1CC=C2C3=C([C@@H](O)[C@H](OC(C)=O)[C@@]21C)[C@@]1(C)C[C@@H](O)[C@H](OC(=O)CCCCCCCCCO)C(C)(C)[C@@H]1CC3)C(C)C
IC50 [19]: 1.76 µg/mL | IC50 [20]: 0.12 µg/mL

CO[C@H]1CCC(=O)c2c([C@@H]3CCC(=O)c4c(O)cccc43)ccc(O)c21
IC50 [22]: 1 to 20 µM | IC50 [23]: 1 to 20 µM | IC50 [24]: 1 to 20 µM | IC50 [25]: 1 to 20 µM | IC50 [26]: 1 to 20 µM | IC50 [11]: 1 to 20 µM | IC50 [27]: 1 to 20 µM | IC50 [28]: 1 to 20 µM

O=Cc1c(O)cc(O)cc1/C=C/c1ccc(O)cc1
IC50 [15]: < 50 µM | IC50 [6]: < 50 µM | IC50 [16]: < 50 µM

CC(C)=C1CC[C@@]2(C)OC3=C(C[C@@H]12)C(=O)[C@]1(O)CO[C@H]3C1
IC50 [29]: 83.7 µM

COC(=O)[C@@H]1c2c(oc3cc(CCO)cc(O)c3c2=O)C=C[C@H]1O
IC50 [12]: 4.1 µM | IC50 [3]: 5.6 µM | IC50 [13]: 2.8 µM | IC50 [30]: 2.2 µM | IC50 [14]: 6.5 µM

O=C1CC[C@@H](c2ccc(O)c3c2C(=O)CC[C@H]3O)c2cccc(O)c21
IC50 [22]: 1 to 20 µM | IC50 [23]: 1 to 20 µM | IC50 [24]: 1 to 20 µM | IC50 [25]: 1 to 20 µM | IC50 [26]: 1 to 20 µM | IC50 [11]: 1 to 20 µM | IC50 [27]: 1 to 20 µM | IC50 [28]: 1 to 20 µM

COC1=C2c3cc(OC)cc(O)c3C(=O)O[C@]2(C)CC1=O
IC50 [5]: 75.3 µM

O=C1CC[C@@H](c2ccc(O)c3c2C(=O)CCC3=O)c2cccc(O)c21
IC50 [22]: 1 to 20 µM | IC50 [23]: 1 to 20 µM | IC50 [24]: 1 to 20 µM | IC50 [25]: 1 to 20 µM | IC50 [26]: 1 to 20 µM | IC50 [11]: 1 to 20 µM | IC50 [27]: 1 to 20 µM | IC50 [28]: 1 to 20 µM

COC(=O)c1cc(OC)cc2c1C(=O)[C@H]([C@@H](O)CC(C)=O)CO2
IC50 [21]: 30 to 46 µM

CO[C@H]1C[C@H](O)C2=C(C[C@H]3C(=C(C)C)CC[C@@]3(C)O2)C1=O
IC50 [29]: 92.1 µM
